As usually defined, the melting point is the temperature, or range, at which the solid turns liquid.

Residues, ends and D or L forms follow the SMILES beside them. *: point of attachment. Boc = CC(C)(C)OC(=O)*; Bn = c1ccc(C*)cc1

As for `CSc1cc(C)nc(SC)c1NC(=O)CCCCSc1nc2c(C)c(Cl)cc(C(C)C)c2o1`, the melting point is 155 to 156 °C.

`Cc1ccc(N2CCN(CCC3CN(C)C(=O)O3)CC2)cc1` (stereo not drawn) showed a melting point of 96 to 97 °C.

Consider `NS(=O)(=O)NC[C@H]1COc2ccc(Cl)cc2O1`, for which the melting point lay within 118 to 119 °C.

`CSC(=S)N(C)N=Cc1ccco1` returned a melting point of 103 °C.

`CCOC(=O)c1ccc(-c2cccc(-c3ccc4c(c3)C(C)(C)CCC4(C)C)c2OCOC)cc1` gave a melting point of 75 °C.

In the case of `CCCCc1ccc2c(n1)C(C(N)=S)CCC2` (stereo not drawn), the melting point was in the range of 54 to 56 °C.

Regarding `N#Cc1nn(-c2c(Cl)cc(C(F)(F)F)cc2Cl)c(C=O)c1SC(F)(F)F`, the melting point stood at 90 °C.

Regarding `CCOc1ccc(S(=O)(=O)Cl)cc1C(=O)OC`, the melting point lay in the range of 99 to 100 °C.

In the case of `O=C(C=Cc1ccncc1)c1ccco1`, the melting point lay within 122 to 124 °C.

As to `COC(=O)c1ccc(C(=O)Nc2cc3c4c(c2)CCCC4CCC3)s1`, the melting point lay in the range of 221 to 222 °C.

`COCC(=O)NNC1=Nc2sc(Cl)cc2C(c2ccccc2[N+](=O)[O-])=NC1`: the melting point lay in the range of 198 to 200 °C.

As for `COc1ccc(C2CCS(=O)(=O)C2)cc1OC1CCCC1` (stereo not drawn), the melting point is 89 to 90 °C.

Take `COc1cc2c(cc1OC(C)C)-c1c(-c3cccs3)c3c(n1CC2)C(=O)N(C(C)C)CCNC3`: the melting point lay in the range of 242 to 243 °C.

In turn, `O=C(O)c1cccc(-c2ccc3c(c2)N(c2cc(Cl)ccc2Cl)CC3)c1` showed a melting point of 219 to 220 °C.

Regarding `COC(=O)NCCc1ccc(C(=O)OC)c(S(=O)(=O)NC(=O)Nc2nc(OC)cc(OC)n2)c1`, the melting point was in the range of 165 to 169 °C.

In turn, `CCCCCCCOC(=O)Oc1ccncc1` had a melting point of 44 to 50 °C.

`N#CC(c1ccccc1)(c1ccccc1)C1CCCN(CCc2ccc(Cl)c(Cl)c2)C1` (stereo not drawn) displayed a melting point of 139 to 142 °C.

Molecule `COC(=O)C(C)(C)Oc1ccc2c(=O)n(CC(C)C)c(CNC(=O)OC(C)(C)C)c(-c3ccccc3)c2c1` registered a melting point of 207 to 209 °C.

Take `CC(C)(C)c1noc(-c2cnc(Cl)c(Cl)c2)n1`: the melting point was 98 to 101 °C.

For the molecule `Cc1ccc(OCC(=O)c2ccc3c(c2)C(C)(C)CCC3(C)C)cc1O`, the melting point was 144 to 145 °C.

Consider `O=C(NCc1ncc(C(F)(F)F)cc1Cl)c1c(Cl)nc2c(c1Cl)CCCC2`, for which the melting point is 48 to 50 °C.

`CCCCNC(=O)c1ccc2c(=O)nc(-c3ccccn3)sc2c1` displayed a melting point of 194 °C.

The molecule `Fc1ccc(Oc2cc3cnc(Cl)nc3cn2)c(F)c1` had a melting point of 210 to 212 °C.

Consider `CC(C)(CO)COc1ccc(NC(=O)c2cc3ccccc3s2)cc1C#N`, for which the melting point lay in the range of 188 to 189 °C.

`COc1ccc(NC(=S)c2ccc(N(C)C)cc2)cc1` displayed a melting point of 192 °C.

With `CON=C(c1noc(C)n1)c1ccccc1COc1ccc(Cl)cc1`, the melting point fell in the range of 125 to 126 °C.

In the case of `CCO[C@@H](Cc1ccc2c(ccn2Cc2nc(-c3ccccc3OC)oc2C)c1)C(=O)O`, the melting point lay within 59 to 60 °C.

With `CN1C(=O)C(CC(NC(=O)c2ccc(Cl)cc2)C(=O)O)c2ccccc21` (stereo not drawn), the melting point was in the range of 115 to 120 °C.

Molecule `Clc1ccc(OC(C(OCc2ccc(Cl)cc2Cl)c2ccc(Cl)cc2Cl)n2cncn2)cc1` (stereo not drawn) came in with a melting point of 132 to 135 °C.

`COc1nc(C)cnc1NS(=O)(=O)c1cccnc1-c1ccc(OC(C)(C)CO)cc1` returned a melting point of 182 to 184 °C.

Turning to `COCCNC(=O)c1cc(F)cc(-c2cccc3c(C)c(Cc4cccc(C(F)(F)F)c4)sc23)c1`, the melting point lay in the range of 124 to 126 °C.

Molecule `CCOC(=O)C1C(=O)CC(=O)CC1c1ccccc1` (stereo not drawn) showed a melting point of 86 to 87 °C.

`COc1cc(OC)c2c(=O)[nH]c(-c3ccc(OCC(=O)O)c(OC)c3)nc2c1` yielded a melting point of 275 to 277 °C.

The molecule `COc1ccc(N2CCN(c3c(C)c(C)c4c(c3C)C(Cc3ccccc3)C(C)(C)O4)CC2)cc1` (stereo not drawn) showed a melting point of 146 to 148 °C.

As to `COc1ccc2c(OC)c(C(C)C)cc(Br)c2c1`, the melting point was 108 to 110 °C.

In the case of `O=C(NC(=O)c1c(Cl)cccc1Cl)Nc1ccc(OC(F)(F)C(Cl)Cl)cc1`, the melting point fell in the range of 211 to 213 °C.

As for `CN(C)Cc1ccc(Cn2ccc(OCc3ccc(F)cc3F)c(Br)c2=O)cc1`, the melting point is 111 to 113 °C.

For the molecule `COc1cc(NC(=O)Nc2c(-c3ccccc3C)c3cc4c(cc3oc2=O)CCC4)cc(OC)c1O`, the melting point was 176 to 179 °C.

Take `O=C1NCCc2[nH]c3c(OCc4ccccc4)cccc3c21`: the melting point was in the range of 182 to 185 °C.

`CSC(C)=NOC(=O)N(C)SN(C(C)C)P1(=O)OCCCO1` had a melting point of 134 to 135 °C.

Regarding `CC(C)(C)NC(=O)Nc1nc2nc(N)ncc2cc1-c1ccccc1`, the melting point is above 250 °C.

For `CCCNC(=O)C1(CCCCO)c2ccccc2-c2ccccc21`, the melting point was 73 to 75 °C.

In the case of `Cc1ccc(C(=O)N(CCCNC(=O)OC(C)(C)C)C(c2nc3snc(C)c3c(=O)n2Cc2ccccc2)C(C)C)cc1` (stereo not drawn), the melting point fell in the range of 70 to 71 °C.

In the case of `S=C(Nc1cccc(Cl)c1)N1CCSC1=Nc1cccc(Cl)c1`, the melting point was in the range of 121 to 123 °C.

`N#Cc1ccc(Cc2nccc(-c3ccc(C#N)cc3)n2)cc1` showed a melting point of 155 to 156 °C.

In turn, `C=CS(=O)(=O)Nc1cccc(Nc2nc(N[C@H](C)C(C)(C)C)c3nc[nH]c3n2)c1` had a melting point of 133 to 136 °C.

`Nc1ccc(C(=O)c2nccs2)cc1[N+](=O)[O-]` gave a melting point of 179 to 181 °C.

Consider `N#Cc1cccc2c1CC(=NN)c1cc(F)ccc1S2`, for which the melting point was in the range of 220 to 222 °C.

In turn, `O=C(O)c1cc(N=C=S)cc(N=C=S)c1` returned a melting point of 125 to 127 °C.

Consider `CSc1nc2nc(C)cc(-c3ccccc3)n2n1`, for which the melting point lay within 121 to 123 °C.

On to `CCCCCCCC(SC)S(=O)(=O)c1ccc(C)cc1` (stereo not drawn), for which the melting point is 65 to 66 °C.

On to `COc1ccc(C(=O)Nc2ccccc2)cc1NCc1cccc(C(F)(F)F)c1`, for which the melting point lay within 167 to 171 °C.

As for `COc1ccc(-c2cnc(N3Cc4c([nH]c5ccccc5c4=O)C3C3Cc4ccccc4O3)nc2)cc1` (stereo not drawn), the melting point was 301 to 302 °C.

The molecule `CCCc1c(OCCCOc2cccc3c2CCCC3)ccc2c1OC(CCC(=O)OC)(CCC(=O)N1CCCC1)CC2=O` (stereo not drawn) returned a melting point of 106 to 107 °C.

Consider `CC(=O)N[C@@H](CS)C(=O)NCCSC(=O)c1ccccc1`, for which the melting point lay within 128 to 130 °C.

Take `Cc1ccc(S(=O)(=O)CCOc2ccccc2OCCS(=O)(=O)c2ccc(C)cc2)cc1`: the melting point fell in the range of 95 to 96 °C.

`O=c1[nH]c(=O)n2c3c1cnn3C(c1cccc(C(F)(F)F)c1)CC2` (stereo not drawn): the melting point was in the range of 297 to 300 °C.

`COc1ccccc1C1C2CCC(C2)C12CCC(=O)N2` (stereo not drawn) yielded a melting point of 260 °C.

`O=C(/C=C/C=C(c1ccccc1C(F)(F)F)c1ccccc1C(F)(F)F)NCCCCc1cccnc1` had a melting point of 110 to 112 °C.

In turn, `Cc1ncsc1NC(=O)Nc1ccc(-n2nc(C(F)(F)F)cc2C2CC2)cc1` returned a melting point of 124 to 126 °C.

`CC(NC(=O)C(Cc1ccc(OCc2ccccc2)cc1)NC(=O)OC(C)(C)C)C(=O)NCC(=O)O` (stereo not drawn) (Boc-Tyr(Bn)-Ala-Gly-OH; configuration not given here): the melting point is 104 to 107 °C.

`OCCC1=Cc2ccccc2C1` returned a melting point of 47 to 49 °C.

Turning to `O=[N+]([O-])CC1(SCc2ccccc2)CCC2(CC1)OCCO2`, the melting point fell in the range of 121 to 122 °C.

`CN(C)C(=O)COC1c2ccccc2CCc2ccccc21` returned a melting point of 73 to 75 °C.

In the case of `Nc1ccc2ncnc(Nc3ccc(Oc4ccccc4)cc3)c2c1`, the melting point lay in the range of 89 to 90 °C.

In turn, `O=C(O)/C=C/c1cnc(-c2ccc(O)c(C34CC5CC(CC(C5)C3)C4)c2)cn1` returned a melting point of 70 to 71 °C.

`CCOc1ccc(C(=O)CCC(=O)O)c(OCC)c1` gave a melting point of 139 to 141 °C.

Molecule `Cn1nc(-c2ccc(Cl)cc2)cc1N=Cc1ccsc1` yielded a melting point of 130 °C.

For the molecule `Nc1ccc(C(O)(Cc2ccccc2)c2ccccc2)cc1` (stereo not drawn), the melting point is 105 to 107 °C.

Molecule `O=C(NCCO)c1cccc(-c2nccc3cc(Cc4cccc(C(F)(F)F)c4)oc23)c1` gave a melting point of 168 to 169 °C.

For the molecule `Brc1ccc2c(C3CCNCC3)n[nH]c2c1`, the melting point was in the range of 163 to 165 °C.

Regarding `CC(C)N(C(=O)CCCCCC(=O)O)c1ccccc1`, the melting point fell in the range of 62 to 63 °C.

Regarding `Cc1ccc2c3c(ccc2n1)OC[C@H](CN1CCN(c2ccc4cc(Br)ccc4n2)CC1)O3`, the melting point was 153 to 154 °C.

Molecule `CCCSc1ncc(C(=O)N[C@@H](C)C(=O)O)n1Cc1ccccc1Cl` returned a melting point of 173 to 176 °C.

Molecule `CNC(=O)NCCSCc1ccccn1` displayed a melting point of 63 to 66 °C.

Turning to `CN(C(=O)CNc1nc(-c2ccccc2)ncc1N)c1ccccc1`, the melting point was 183 to 184 °C.

In the case of `N#Cc1cccc(C(=O)c2ccc(Cl)cc2)c1`, the melting point turned out to be 142 °C.

With `O=Cc1nccn1Cc1ccccc1[N+](=O)[O-]`, the melting point is 141 to 144 °C.

The molecule `Cc1c(CO)ncn1CCCNC(C)(C)c1ccc(Cl)cc1` registered a melting point of 97 to 99 °C.

On to `COc1ccc(-c2cnn3c(-c4cccc(NC(=O)CC(C)C)c4)ccnc23)cc1`, for which the melting point was in the range of 225 to 227 °C.

Molecule `CC(C)NC(=O)c1nc(-c2cccc(Cl)c2)c(-c2ccc(=O)n(C(C)C)n2)s1` returned a melting point of 105 to 106 °C.

Consider `CCCCC(Cc1ccc(OCCNC(=O)c2ccc(-c3cccc(C(=O)O)c3)cc2)cc1)C(=O)O` (stereo not drawn), for which the melting point fell in the range of 142 to 143 °C.

In turn, `BrCC(=CSc1ccccc1Br)c1ccccc1` registered a melting point of 65 °C.

`Cc1cc(Br)cc2ccc(Cl)nc12` registered a melting point of 114 to 116 °C.

Take `COC(=O)c1c(OC)ccc(NC(=O)C(F)(F)F)c1OC`: the melting point was in the range of 112 to 113 °C.

As to `CCOc1cc(C=CC(=O)OC)ccc1OCc1coc(-c2ccccc2)n1`, the melting point fell in the range of 125 to 126 °C.

`C[C@H](N)Cn1ncc2ccc3oc(C(=O)NCC(C)(C)CO)cc3c21` registered a melting point of 103 °C.

`COC(=O)c1ccc(S(C)(=O)=O)c(OS(=O)(=O)C(F)(F)F)c1Cl` yielded a melting point of 69 °C.

Source of the values: a melting point compilation (Tetko et al.; mined from patent text by program, amines drawn as free bases though some values may be those of a salt).
